Laboratory results from the supplement of paper PMC11208160.

Experiment: recombinant UMI read abundance after kanamycin selection (control-corrected) (log10(CPM+1)); higher = more efficient recombination; extreme values may be limits of the assay; sequences stand for … in AGTGCAGAGAAAATCGGCCAGTTTTCTCTGCCTGCAGTCCGCATGCCGTGGGACCCCTTGGGTTCTAACCTGTTGCCTAGATTTATGCAGCGGACTGCCTTTCTCCCAAAGTGATAAACCGG…AGGTTGGTTTCACT; site = the 11-nt donor
In short: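 The measure is log10(CPM+1) for recombinant UMIs. These were PCR-amplified across the donor–target junction and sequenced after Escherichia coli carrying a donor and donor-binding-loop pair library and a target plasmid with T7-inducible IS621 bridge recombinase was plated on IPTG (0.07 mM) plus kanamycin or unselected. CPM were averaged over two replicates and scaled by control-derived factors.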
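Note: IS621 bridge recombinase in Escherichia coli cells against a fixed T5 target plasmid.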

Row | Sequence | recombinant UMI read abundance (log10)
1 | ATAGACCCATGGACCGGTTTTCCCGGTAATCCGTATTTGAT (site ATAGACCCTAT) | 1.21
2 | ATAGAGACATGGACCGGTTTTCCCGGTAATCCGTATTTGGT (site ATAGAGACTAC) | 1.75
3 | ATAGAGACATGGACCGGTTTTCCCGGTAATCCGTATTTGGT (site ATCGAGACTAC) | 0.671
4 | ATAGAGACATGGACCGGTTTTCCCGGTAATCCGTATTTGGT (site ATGGAGACTAC) | 0.992
5 | ATAGAGACATGGACCGGTTTTCCCGGTAATCCGTATTTGGT (site ATTGAGACTAC) | 1.03
6 | ATAGATACATGGACCGGTTTTCCCGGTAATCCGTATTTGCC (site ATAGATACTGG) | 2.54
7 | ATAGCCTCATGGACCGGTTTTCCCGGTAATCCGTATTTGTA (site ATAGCCTCTTA) | 2.86
8 | ATAGCTACATGGACCGGTTTTCCCGGTAATCCGTATTTGCG (site ATAGCTACTCG) | 2.1
9 | ATAGCTACATGGACCGGTTTTCCCGGTAATCCGTATTTGTA (site ATAGCTACTTA) | 2.3
10 | ATAGGTACATGGACCGGTTTTCCCGGTAATCCGTATTTGAC (site ATAGGTACTGT) | 2.8
11 | ATAGGTACATGGACCGGTTTTCCCGGTAATCCGTATTTGAC (site CTAGGTACTGT) | 1.97
12 | ATAGGTACATGGACCGGTTTTCCCGGTAATCCGTATTTGAC (site GTAGGTACTGT) | 1.68
13 | ATAGGTACATGGACCGGTTTTCCCGGTAATCCGTATTTGAC (site TTAGGTACTGT) | 2.15
14 | ATAGTAGCATGGACCGGTTTTCCCGGTAATCCGTATTTGCA (site ACAGTATCTTG) | 0.993
15 | ATAGTAGCATGGACCGGTTTTCCCGGTAATCCGTATTTGCA (site ATAGTAGCTTG) | 3.08
16 | ATAGTATCATGGACCGGTTTTCCCGGTAATCCGTATTTGAC (site ATAGTATCTGT) | 3.75
17 | ATAGTATCATGGACCGGTTTTCCCGGTAATCCGTATTTGAC (site CTAGTATCTGT) | 2.94
18 | ATAGTATCATGGACCGGTTTTCCCGGTAATCCGTATTTGAC (site GTAGTATCTGT) | 2.49
19 | ATAGTATCATGGACCGGTTTTCCCGGTAATCCGTATTTGAC (site TTAGTATCTGT) | 2.66
20 | ATAGTATCATGGACCGGTTTTCCCGGTAATCCGTATTTGCA (site AAAGTATCTTG) | 2.4
21 | ATAGTATCATGGACCGGTTTTCCCGGTAATCCGTATTTGCA (site ACAGTATCTTG) | 2.34
22 | ATAGTATCATGGACCGGTTTTCCCGGTAATCCGTATTTGCA (site AGAGTATCTTG) | 2.15
23 | ATAGTATCATGGACCGGTTTTCCCGGTAATCCGTATTTGCA (site ATAGTATCTTG) | 3.37
24 | ATAGTATCATGGACCGGTTTTCCCGGTAATCCGTATTTGCC (site ATAGTATCTGG) | 3.34
25 | ATAGTATCATGGACCGGTTTTCCCGGTAATCCGTATTTGCC (site CTAGTATCTGT) | 0.756

Row | Sequence | recombinant UMI read abundance (log10)
26 | ATATACCCATGGACCGGTTTTCCCGGTAATCCGTATTTGCG (site ATATACCCTCG) | 0.817
27 | ATATATGCATGGACCGGTTTTCCCGGTAATCCGTATTTGCT (site ATATATGCTAG) | 2.99
28 | ATATCACCATGGACCGGTTTTCCCGGTAATCCGTATTTGCT (site ATATCACCTAG) | 0
29 | ATATCATCATGGACCGGTTTTCCCGGTAATCCGTATTTGCG (site ATATCATCTCG) | 2.11
30 | ATATCTACATGGACCGGTTTTCCCGGTAATCCGTATTTGTG (site AAATCTACTCA) | 0.252
31 | ATATCTACATGGACCGGTTTTCCCGGTAATCCGTATTTGTG (site ACATCTACTCA) | 0.246
32 | ATATCTACATGGACCGGTTTTCCCGGTAATCCGTATTTGTG (site AGATCTACTCA) | 0.401
33 | ATATCTACATGGACCGGTTTTCCCGGTAATCCGTATTTGTG (site ATATCTACTCA) | 0.895
34 | ATATCTGCATGGACCGGTTTTCCCGGTAATCCGTATTTGGC (site ATATCTGCTGC) | 0.5
35 | ATATGAACATGGACCGGTTTTCCCGGTAATCCGTATTTGTC (site ATATGAACTGA) | 2.77
36 | ATATGTCCATGGACCGGTTTTCCCGGTAATCCGTATTTGTC (site ATATGTCCTGA) | 0.623
37 | ATATTGTCATGGACCGGTTTTCCCGGTAATCCGTATTTGTC (site ATATTGTCTGA) | 3.25
38 | ATCAAGGCATGGACCGGTTTTCCCGGTAATCCGTATTTGCG (site ATCAAGGCTCG) | 1.32
39 | ATCAATACATGGACCGGTTTTCCCGGTAATCCGTATTTGAC (site ATCAATACTGT) | 1.74
40 | ATCAATACATGGACCGGTTTTCCCGGTAATCCGTATTTGAC (site ATCCATACTGT) | 0
41 | ATCAATACATGGACCGGTTTTCCCGGTAATCCGTATTTGAC (site ATCGATACTGT) | 2.2
42 | ATCAATACATGGACCGGTTTTCCCGGTAATCCGTATTTGAC (site ATCTATACTGT) | 0
43 | ATCAGAACATGGACCGGTTTTCCCGGTAATCCGTATTTGAT (site ATCAGAACTAT) | 1.88
44 | ATCAGAGCATGGACCGGTTTTCCCGGTAATCCGTATTTGTC (site ATCAGAGCTGA) | 1.82
45 | ATCATGGCATGGACCGGTTTTCCCGGTAATCCGTATTTGCA (site ATCATGGCTTG) | 2.21
46 | ATCCAAGCATGGACCGGTTTTCCCGGTAATCCGTATTTGTG (site ATCCAAGCTCA) | 1.51
47 | ATCCAAGCATGGACCGGTTTTCCCGGTAATCCGTATTTGTG (site ATCCAAGCTCC) | 0.0133
48 | ATCCAAGCATGGACCGGTTTTCCCGGTAATCCGTATTTGTG (site ATCCAAGCTCG) | 1.13
49 | ATCCAAGCATGGACCGGTTTTCCCGGTAATCCGTATTTGTG (site ATCCAAGCTCT) | 0.581
50 | ATCCCAGCATGGACCGGTTTTCCCGGTAATCCGTATTTGAG (site ATCCAAGCTCT) | 0.00798

Row | Sequence | recombinant UMI read abundance (log10)
51 | ATCCCAGCATGGACCGGTTTTCCCGGTAATCCGTATTTGAG (site ATCCCAGCTCT) | 0.952
52 | ATCCCAGCATGGACCGGTTTTCCCGGTAATCCGTATTTGAG (site ATCCGAGCTCT) | 0.00574
53 | ATCCCAGCATGGACCGGTTTTCCCGGTAATCCGTATTTGAG (site ATCCTAGCTCT) | 0
54 | ATCCCTACATGGACCGGTTTTCCCGGTAATCCGTATTTGAG (site ATCCCTACTCT) | 0.465
55 | ATCCCTACATGGACCGGTTTTCCCGGTAATCCGTATTTGAG (site CTCCCTACTCT) | 0.196
56 | ATCCCTACATGGACCGGTTTTCCCGGTAATCCGTATTTGAG (site GTCCCTACTCT) | 0.0127
57 | ATCCCTACATGGACCGGTTTTCCCGGTAATCCGTATTTGAG (site TTCCCTACTCT) | 0.854
58 | ATCCGCTCATGGACCGGTTTTCCCGGTAATCCGTATTTGCG (site ATCCGCTCTCG) | 1.19
59 | ATCCTAGCATGGACCGGTTTTCCCGGTAATCCGTATTTGAG (site ATCCAAGCTCT) | 0.122
60 | ATCCTAGCATGGACCGGTTTTCCCGGTAATCCGTATTTGAG (site ATCCCAGCTCT) | 0.0117
61 | ATCCTAGCATGGACCGGTTTTCCCGGTAATCCGTATTTGAG (site ATCCGAGCTCT) | 0.0408
62 | ATCCTAGCATGGACCGGTTTTCCCGGTAATCCGTATTTGAG (site ATCCTAGCTCT) | 0.651
63 | ATCCTAGCATGGACCGGTTTTCCCGGTAATCCGTATTTGTT (site AACCTAGCTAA) | 0.00989
64 | ATCCTAGCATGGACCGGTTTTCCCGGTAATCCGTATTTGTT (site ACCCTAGCTAA) | 0.0137
65 | ATCCTAGCATGGACCGGTTTTCCCGGTAATCCGTATTTGTT (site AGCCTAGCTAA) | 0.0169
66 | ATCCTAGCATGGACCGGTTTTCCCGGTAATCCGTATTTGTT (site ATCCTAGCTAA) | 0.0177
67 | ATCCTTGCATGGACCGGTTTTCCCGGTAATCCGTATTTGAT (site ATCCTTGCTAT) | 2.19
68 | ATCGACCCATGGACCGGTTTTCCCGGTAATCCGTATTTGGT (site ATCGACCCTAC) | 0
69 | ATCGACCCATGGACCGGTTTTCCCGGTAATCCGTATTTGTG (site ATCGACCCTCA) | 0.0241
70 | ATCGCTGCATGGACCGGTTTTCCCGGTAATCCGTATTTGCC (site ATCGCTGCTGG) | 2.27
71 | ATCGGGTCATGGACCGGTTTTCCCGGTAATCCGTATTTGGT (site ATCGGGTCTAC) | 1.85
72 | ATCGTATCATGGACCGGTTTTCCCGGTAATCCGTATTTGTC (site ATCGTATCTGA) | 3.35
73 | ATCGTCCCATGGACCGGTTTTCCCGGTAATCCGTATTTGAT (site ATCGTCCCTAT) | 0.563
74 | ATCTACCCATGGACCGGTTTTCCCGGTAATCCGTATTTGGC (site ATCTACCCTGC) | 0.584
75 | ATCTAGACATGGACCGGTTTTCCCGGTAATCCGTATTTGGG (site AACTAGACTCC) | 0.0333
